In the OPERA property sets (Mansouri et al. 2018):

Row | SMILES | melting point | boiling point | log10 vapour pressure (mmHg) | ready biodegradability | log10 Henry constant (atm·m³/mol) | log10 Koc (L/kg) | log10 Koa
1 | CCCCCCCCCCCCNC(=N)N | 136 °C |  |  |  |  |  | 
2 | COc1cc(NCc2ccc3nc(N)nc(N)c3c2C)cc(OC)c1OC | 216 °C |  |  |  |  |  | 
3 | C[C@]12CCC(=O)C=C1CC[C@@H]1[C@@H]2CC[C@@]2(C)[C@H]1CC[C@]2(C)O | 163 °C |  |  |  |  |  | 
4 | COC(=O)N(C(=O)N1COC2(C(=O)OC)Cc3cc(Cl)ccc3C2=N1)c1ccc(OC(F)(F)F)cc1 (stereo not drawn) | 140 °C |  |  |  |  |  | 
5 | NCC1CCNCC1 | 25 °C | 200 °C |  |  |  |  | 
6 | Cc1cc(Sc2cc(C)c(O)c(C(C)(C)C)c2)cc(C(C)(C)C)c1O | 126 °C |  |  |  |  |  | 
7 | COC(=O)C(C)N(C(=O)c1ccccc1)c1ccc(F)c(Cl)c1 (stereo not drawn) | 85 °C |  |  |  |  |  | 
8 | CO[C@H]1C=CC2=CCN3CCC4=C(CC(=O)OC4)[C@]23C1 | 99.5 °C |  |  |  |  |  | 
9 | CC1CCCNC1=O (stereo not drawn) | 55.3 °C | 250 °C |  |  |  |  | 
10 | Cc1cc(C)nc(N)n1 | 152 °C |  |  |  |  |  | 
11 | COS(C)(=O)=O | 20 °C | 203 °C |  |  |  |  | 
12 | C=Cc1cc(C)ccc1C | -35 °C |  | 0 |  |  |  | 
13 | CCCCCCc1ccc(-c2ccc(C#N)cc2)cc1 |  |  |  | not readily biodegradable |  |  | 
14 | CC1CCCC(O)C1 (stereo not drawn) |  | 163 °C | -0.32 |  | -5.44 |  | 
15 | CCCCOC(=O)C(Cl)(Cl)Cl |  | 204 °C |  |  |  |  | 
16 | CCC(C)(Br)CC |  | 130 °C |  |  |  |  | 
17 | COc1cc(OC)nc(NC(=O)NS(=O)(=O)c2ncccc2C(=O)N(C)C)n1 | 142 °C |  |  |  |  | 1.48 | 
18 | CC(C)(O)C(=O)O | 82.5 °C | 212 °C | -2.06 |  |  |  | 
19 | COS(=O)OC |  | 126 °C |  |  |  |  | 
20 | BrCc1ccccc1CBr | 95 °C |  |  |  |  |  | 
21 | c1ccnnc1 | -8 °C | 208 °C |  |  |  |  | 

Row | SMILES | melting point | boiling point | log10 vapour pressure (mmHg) | ready biodegradability | log10 Henry constant (atm·m³/mol) | log10 Koc (L/kg) | log10 Koa
22 | CCCCCCC1CCCC1 | -73 °C | 203 °C |  |  |  |  | 
23 | Clc1cc(Cl)cc(Cl)c1 | 63.5 °C | 208 °C | -0.62 | not readily biodegradable | -2.72 | 2.85 | 4.85
24 | BrCI |  | 140 °C |  |  |  |  | 
25 | N#CSCc1ccccc1 | 43 °C | 232 °C |  |  |  |  | 
26 | O=C(O)c1cc(Cl)ccc1[N+](=O)[O-] | 139 °C |  |  |  |  |  | 
27 | NCCCCCCCN | 28.9 °C | 224 °C |  |  |  |  | 
28 | C=C(C)CCC |  | 62.1 °C | 2.29 |  |  |  | 
29 | CCC1COC(Cn2cncn2)(c2ccc(Cl)cc2Cl)O1 (stereo not drawn) | 84 °C |  |  |  |  |  | 
30 | C=C(CC(=O)OC)C(=O)OC | 38 °C | 208 °C |  |  |  |  | 
31 | O=C1c2ccccc2C(=O)C1c1ccc2ccccc2n1 | 241 °C |  |  |  |  |  | 
32 | C1CCC(CCCC2CCCC2)CC1 |  | 270 °C |  |  |  |  | 
33 | CCCCCCCCSC#N | 105 °C |  |  |  |  |  | 
34 | COc1cccc(OC)c1C(=O)O |  |  | -6.72 |  |  |  | 
35 | FC(F)(F)C(F)(F)C(F)(F)C(F)(F)C(F)(F)C(F)(F)C(F)(F)Cl |  | 108 °C |  |  |  |  | 
36 | C[C@H](NC(=O)COC(=O)c1ccccc1)C(N)=O | 202 °C |  |  |  |  |  | 
37 | Cc1ccc(C(=O)O)c([N+](=O)[O-])c1O | 186 °C |  |  |  |  |  | 
38 | CCCCCSC | -94 °C | 145 °C |  |  |  |  | 
39 | CC1=CC[C@@H]2C[C@@H](C[C@]3(CC[C@H](C)[C@@H](C)O3)O2)OC(=O)[C@@H]2C=C(C)[C@@H](O)[C@H]3OCC(=CC=C[C@H](C)C1)[C@]32O | 214 °C |  |  |  |  |  | 
40 | C=COCCCl | -70 °C | 108 °C | 1.43 | readily biodegradable |  |  | 
41 | CCCCCOC |  | 99 °C |  |  |  |  | 
42 | OCc1ccccc1 | -15.2 °C | 205 °C | -1.03 | readily biodegradable | -6.47 | 1.1 | 

Row | SMILES | melting point | boiling point | log10 vapour pressure (mmHg) | ready biodegradability | log10 Henry constant (atm·m³/mol) | log10 Koc (L/kg) | log10 Koa
43 | COc1cc(NC(=O)CC(C)=O)c(OC)cc1Cl |  |  |  | not readily biodegradable |  |  | 
44 | C#CCCO | -63.6 °C | 129 °C |  |  |  |  | 
45 | Cl[Si](Cl)(Cl)CCc1ccccc1 |  | 242 °C |  |  |  |  | 
46 | CCOc1cccc(C(=O)O)c1 | 137 °C |  |  |  |  |  | 
47 | O=C1c2ccccc2N(C(=O)CN2CCOCC2)CN1c1ccccc1 | 136 °C |  |  |  |  |  | 
48 | COP(=O)(OC)O/C(C)=C/C(=O)N(C)C |  |  | -3.8 |  | -10.3 | 1.66 | 
49 | FC(F)OC(C(F)(F)F)C(F)(F)F |  | 42.1 °C | 2.59 |  |  |  | 
50 | BrC(c1ccccc1)(c1ccccc1)c1ccccc1 | 153 °C |  |  |  |  |  | 
51 | CC(C)NC(C)(C)C |  | 98 °C |  |  |  |  | 
52 | CC(C)OC(=O)Nc1cccc(Cl)c1 | 41 °C |  | -3.74 | readily biodegradable |  | 2.6 | 
53 | CN(C)c1ccccc1Cl |  | 205 °C |  |  |  |  | 
54 | CC(C)(C)c1ccc(O)c(C(C)(C)C)c1 | 56.5 °C | 264 °C | -2.32 | not readily biodegradable |  |  | 
55 | CC(C)CC(C)N (stereo not drawn) |  | 109 °C |  |  | -4.51 |  | 
56 | FC1(F)C(F)(F)C(F)(F)C2(F)C(F)(C1(F)F)C(F)(F)C(F)(F)C1(F)C(F)(F)C(F)(F)C(F)(F)C(F)(F)C12F (stereo not drawn) | -20 °C | 210 °C |  |  |  |  | 
57 | NCCCCCCNCCCCCCN | 33 °C |  |  |  |  |  | 
58 | CNC(=O)Oc1cc(C)c(C)c(C)c1 | 109 °C |  | -4.29 |  |  | 2.6 | 
59 | CCCc1cccs1 |  | 158 °C |  |  |  |  | 
60 | CCCCC(CCCC)c1ccncc1 |  |  |  | readily biodegradable |  |  | 
61 | CCCCCCCCCCCCCCCCCCOC(=O)CCc1cc(C(C)(C)C)c(O)c(C(C)(C)C)c1 |  |  |  | not readily biodegradable |  |  | 
62 | CC(=O)CCc1ccccc1 | -13 °C | 234 °C |  | not readily biodegradable |  |  | 
